Read-outs that look alike come from different tables or passages of the source.
What was measured:
human albumin (HA) [1] = target: T1, human albumin (HA) (Homo sapiens, UniProt P02768); assay: SPR adsorption and desorption cycles of HA on functionalized chips with release agents; assay type: binding; settings: for SPR angle shift after HA binding: 2 mg/mL HA, functionalized SPR chip; for Release percentage (highest observed; %) NaSCN (2M): release agent NaSCN 2M; for Release percentage (highest observed; %) pH 3.6: release by pH 3.6 buffer; for release of bound HA, SPR results: CB chips, quoted for comparison with column; for Release percentage (highest observed; %) SDS (35 mM): release agent SDS 35 mM
T1 sequence (P02768 25-609): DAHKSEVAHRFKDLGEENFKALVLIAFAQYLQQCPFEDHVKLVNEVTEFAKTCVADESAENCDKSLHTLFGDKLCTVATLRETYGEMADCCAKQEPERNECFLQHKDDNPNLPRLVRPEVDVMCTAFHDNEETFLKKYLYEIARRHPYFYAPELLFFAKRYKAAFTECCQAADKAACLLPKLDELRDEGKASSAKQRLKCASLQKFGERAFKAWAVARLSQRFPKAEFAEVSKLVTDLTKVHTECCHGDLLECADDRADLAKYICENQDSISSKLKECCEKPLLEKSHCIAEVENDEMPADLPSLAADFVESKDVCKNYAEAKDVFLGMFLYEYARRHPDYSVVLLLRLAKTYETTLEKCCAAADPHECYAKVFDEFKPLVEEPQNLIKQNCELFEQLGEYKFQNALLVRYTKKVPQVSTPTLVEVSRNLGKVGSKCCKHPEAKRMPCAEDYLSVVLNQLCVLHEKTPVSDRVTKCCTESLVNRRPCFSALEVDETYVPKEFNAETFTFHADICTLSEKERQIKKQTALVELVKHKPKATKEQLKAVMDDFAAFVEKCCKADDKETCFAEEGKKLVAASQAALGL
Description: SPR tests: A temperature controlled NanoSPR8 Model 481 device with a 4-channel flow cell was used and calibration and warm up were performed (2 hr) prior to tests. Two flow cell channels were set as reference in all tests. Basic solution with surfactant (0.1 M NaOH and 1% SDS). acidic solution (0.1 M HCl), and water were used to clean the testing flow cell and tubing system.
A phosphate buffer solution (PB) for SPR studies was prepared by dissolving 21.48 g Na2HPO4 and 3.11 g KH2PO4 in 1 L Milli-Q water for SPR tests. With this buffer a variety of solutions were prepared: NaCl. Na2SO4 and NaSCN was dissolved in the PB to prepare a 2 M solution. Sodium dodecyl sulfate (SDS) solution of 1 wt % (˜35 mM) was prepared by dissolving SDS in PB with aid of bath sonication. Fatty acid solutions were made by pipetting fatty acid into PB and bath sonicating. Linoleic acid solution (LA) included 1.8 μL of LA and 10 mL PB. Fatty acid mix solution (FA mix) was prepared by dispersing 1.8 μL linoleic acid, 1.05 μL oleic acid and 1.08 μL palmitic acid in 10 mL PB. FA mix was an inhomogeneous emulsion due to the limited solubility of fatty acids even with the aid of bath sonication.
[…] The test was carried out in sequence of HA solution, buffer rinse, releasing agent rinse, buffer rinse, in cycles after an initial PB rinse. Three absorption and desorption cycles were performed on each sample for repeatability/stability. The first two cycles used the same release agents of interest and the third cycle used a reference release agent, usually 2 M NaSCN.
Percentage of HA released by different release agents was calculated by dividing the value difference between the […] adsorption SPR peak shift value (‘Adsorb’ in FIG. 7) and post-release signal value (‘Release’ in FIG. 7) using
SPR shift has a strong dependence on solution conditions, thus one can only compare shift signals after a buffer rinse. The initial sensor baseline is set to zero. For the first cycle, after initial HA exposure and buffer rinse a shift of 0.225 is seen corresponding to full HA coverage. After LA exposure and buffer rinse a drop in shift 0.122 is seen instead of the ideal zero if HA is completely released to initial state. The percent released is calculated as (0.225-0.122)/0.225 or ˜46%. […] Even though the total amount of captured protein remains stable, an increasing amount of un-released protein over cycles was observed. Un-releasable protein was expected due to fouling onto unprotected surface of desorbed surface chemistry and practical limitations of buffer rinse times. […] SPR angle shifts and releasability percent as a function of surface functionalization and release chemical are summarized in Table 2.

[2] = target: T2, human albumin indoxyl sulfate complex (HA-IS) (Homo sapiens, UniProt P02768); assay: Adsorption column of CB-functionalized agarose beads with HA-IS, BCA assay of eluent; assay type: binding; settings: for release of HA bound to the column: release capacity compared to binding capacity
T2 construct: purchased Sigma-Aldrich
T2 sequence (P02768 25-609, one chain of several): as the sequence (P02768 25-609) above
Excerpt: Adsorption column (set-up): Devcon 5-minute epoxy in Dev-tube (ITW Polymer Adhesives, USA) was used on all epoxied parts of the column and was allowed to cure for an hour before use. Agarose beads functionalized with Cibacron Blue dye and suspended in 20% ethanol and 0.1 M KH2PO4 (Blue Sepharose Fast Flow 6, GE Healthcare, USA) was obtained and used as-is.
As shown at FIGS. 5A and 5C, glass tube 15a holds agarose beads functionalized with human albumin binding chemistry Cibacron Blue dye, and a barbed inlet/outlet 15b with Luer lock and needle tip is included to flow a solution in and out of glass tube 15a. An interchangeable solution reservoir feed 15c is included. Specifically, glass tube 15a (inner diameter=4 mm) was cut to 4.1 cm (0.52 mL volume). Two sheets of 10.0 μm pore size Teflon membrane filters (Sterlitech Corp., USA) covered the eluent end of the tube and were sealed around the edge with larger diameter elastic tubing (Tygon SE-200, Saint-Gobain Corp., USA) with excess membrane trimmed by knife. The tubing was secured to the tube via glass-compatible glue (Loctite, Henkel AG & Co. KGaA. Germany) and then epoxied to prevent air leakage. The beads in their suspension fluid (0.739 mL total slurry) were pipetted into the tube on top of the membrane seal and drained to form a bed of beads. The other end of the tube was sealed with membrane filters and tubing in a similar manner. Both ends 15b of the bead bed tube were connected to a Luer lock needle assembly that were epoxied to input tubing to prevent fluid leakage. The solution reservoir 15c included a syringe and a Luer lock connection. The column was suspended vertically and syringe pump (Model NE 300, New Era Pump Systems, Inc., USA) set to 4.0 mL/min with 125-250 μL samples collected at time points with lag time experimentally accounted for. Replacing of solutions occurred by switching out the syringe at the base of the Luer lock needle assembly in 15b, ensuring no air bubbles were introduced.
A phosphate buffer (PB) (pH 7.4) for the adsorption column was prepared to mimic the salt composition of human blood serum. 144.3 mg/L CaCl2), 4.26 g/L Na2HPO4, 612.4 mg/L KH2PO4, 85.7 mg/L MgCl2, and 4.68 g/L NaCl were dissolved in HPLC-grade submicron filtered water under stirring and heat, then filtered through a 10.0 μm membrane filter. NaCl was purchased from EMD Chemicals Inc. (Germany): all other chemicals were obtained from Sigma-Aldrich (USA). NaSCN, indoxyl sulfate, and HA solutions were prepared by simple dissolution in PB. 0.58 mM linoleic acid (LA) solution was prepared by pipetting liquid LA into phosphate buffer and sonicating in 10-minute increments until micelles were formed and evenly distributed, indicated by the solution becoming uniformly cloudy. Solutions of micro BCA protein assay were prepared as instructed in a kit obtained from Thermo Scientific (USA).
In cycles, phosphate buffer, HA-IS complex solution, phosphate buffer, and then release agents (linoleic acid or NaSCN) were pumped through the column and the eluent was collected. CB-functionalized beads were expected to adsorb HA-IS and cause the dissociation of IS from the captured HA. Release agents were expected to cause desorption of captured IS-free HA from the adsorption column. These adsorption and desorption behaviors were studied by optical absorbance at 280 nm of the eluent proportional to HA-IS concentration. […] Then both LA and NaSCN release HA from the adsorption column. […] Without wishing to be bound by theory, it is thought that the delayed LA release was caused by LA micelles dissolving at the buffer solution exchange front where concentration drops below the critical micelle concentration (0.1 mM) giving more free-floating molecules of LA capable of release. This release profile may be optimized by multiple shorter buffer/LA cycles.
Bicinchoninic acid (BCA) assay is a protein sensitive quantification method which was used in this example to measure the concentration of HA. […]

human albumin (HA) [3] = target: T1, human albumin (HA); assay: SPR Langmuir isotherm of HA adsorption on ligand-functionalized sensor chips; assay type: binding; settings: read-out: Kd of HA on SPR sensor modified with different ligands
Description: Langmuir Isotherm: HA was dissolved in PB to make solutions with concentration range from 0.1 mg/mL to 2.0 mg/mL for adsorption study. Such HA solutions were pumped through the flow cell in low to high sequence with 20 min. adsorption time for each solution. Between each HA adsorption session, buffer was used to rinse off unbound protein residue for 20 min. PB signal from selected reference channels was used as baseline.
Prior to further analysis, the raw SPR data, absolute maximum absorption angle versus time, was referenced to a baseline reading. A 3-point running average was applied to reduce noise.
The values of SPR signal shift (in degrees) induced by HA solutions of different concentrations were manually identified. For Langmuir adsorption model fitting, the SPR signal shifts were converted to fractional occupancy of adsorption sites (θ) by assuming 0% and 100% site occupancy under 0 mg/mL and 2 mg/mL HA solution treatment, respectively. After plotting the concentration on x-axis and θ on y-axis, the data was fitted to a Langmuir isotherm model with equation
The adsorption constant, Ka, was obtained under the best fitting condition. The desorption constant.

[4] = cited from earlier work
HSA = HSA (Homo sapiens, UniProt P02768); assay: HSA adsorption/desorption on Cibacron blue column with LA solutions of varying concentration; assay type: binding; settings: LA 8 μl/10 ml, HSA 40 mg/ml, CB beads
Chain of HSA (P02768 25-609): as above
Description: To test the aforementioned hypotheses, a series of experiments were conducted using LA solutions of varying concentrations and HSA solutions with a concentration of 40 mg/ml. […] The first adsorption-desorption cycle was executed with phosphate buffer serving as a mock release agent to reveal the actual desorption strength of the release agent. The amount of HSA released by LA was quantified by integrating the area beneath the release session curve and subtracting the baseline corresponding to the phosphate buffer rinse. This value represents the fraction of HSA that can be manipulated by the LA solution in a reversible manner. In this context, the adsorption of this fraction of HSA onto the Cibacron blue functionalized beads (CB beads) was considered reversible by LA. Subsequently, the reversible adsorption capacity of CB beads and the albumin release peak height, from FIG. 11A, were plotted against the LA solution concentration, as shown in FIG. 11B.

[5] = with respect to a monolayer protein binding signal strength

SMILES: N[C@@H](Cc1c[nH]c2ccccc12)C(=O)O [Tryptophan (COOH term), Tryptophan]
- SPR angle shift after HA binding (human albumin (HA) [1]): ~0.19 °
- SPR angle shift after HA binding (human albumin (HA) [1]; listed as tryptophan of —COOH terminus): 0.19 °
- Release percentage (highest observed; %) NaSCN (2M) (human albumin (HA) [1]): 0%
- Release percentage (highest observed; %) pH 3.6 (human albumin (HA) [1]): 0%

SMILES: N#C[S-].[Na+] [NaSCN, reference compound]
- release capacity ([2]; cycle 3, CB-agarose bead column, BCA assay): 0.292 μmol HA/mL beads
- release of HA bound to the column [2]: ≥ 79%
- release of bound HA, SPR results (human albumin (HA) [1]; SPR): 65%

SMILES: Nc1c(S(=O)(=O)O)cc(Nc2ccc(Nc3nc(Cl)nc(Nc4ccccc4S(=O)(=O)O)n3)c(S(=O)(=O)O)c2)c2c1C(=O)c1ccccc1C2=O [Cibacron Blue]
- Kd (human albumin (HA) [3]): 3000 nM
- SPR angle shift after HA binding (human albumin (HA) [1]; listed as CB): 0.25 °
- SPR angle shift after HA binding (human albumin (HA) [1]; listed as Cibacron Blue (CB)): ~0.25 °
- monolayer averaged SPR signal shift (human albumin (HA) [1]; average over chips (CB n=76; capric acid n=50)): 0.23 °
- Release percentage (highest observed; %) Na2SO4 (2M) (human albumin (HA) [1]; release agent Na2SO4 2M): 12.7%
- Release percentage (highest observed; %) NaCl (2M) (human albumin (HA) [1]; release agent NaCl 2M): 34%
- Release percentage (highest observed; %) NaSCN (2M) (human albumin (HA) [1]): 78.0%
- Release percentage (highest observed; %) SDS (35 mM) (human albumin (HA) [1]): 93.0%
- Release percentage (highest observed; %) FA mix (human albumin (HA) [1]; release agent fatty acid mix): 49.5%
- Release percentage (highest observed; %) lbp (0.1 mM) (human albumin (HA) [1]; release agent lbp 0.1 mM): 0%
- Release percentage (highest observed; %) LA (0.6 mM) (human albumin (HA) [1]; release agent linoleic acid 0.6 mM): 44.1%
- Release percentage (highest observed; %) pH 3.6 (human albumin (HA) [1]): 0%
- Human serum albumin desorption percent, release agent Fatty Acid Mix (human albumin (HA) [1]; [5]): 37.4 ± 14.2%
- Human serum albumin desorption percent, release agent Linoleic Acid (human albumin (HA) [1]; [5]): 31.0 ± 18.9%
- Human serum albumin desorption percent, release agent NaSCN (human albumin (HA) [1]; [5]): 65.0 ± 12.3%

SMILES: CCCCC/C=C\C/C=C\CCCCCCCC(=O)O [LA, linoleic acid]
- release capacity ([2]; CB-agarose bead column, summary b116): ~0.2 μmol HA/mL beads
- release capacity ([2]; CB-agarose bead column, summary b116, per mL beads): 13.5 mg/mL
- release amounts ([2]; Cibacron blue agarose beads, plasma compatible linoleic acid as release agent): 0.23 μmol HA/mL beads
- release capacity ([2]; cycle 1, CB-agarose bead column, BCA assay): 0.177 μmol HA/mL beads
- release capacity ([2]; cycle 2, CB-agarose bead column, BCA assay): 0.232 μmol HA/mL beads
- release of HA bound to the column [2]: at least 47%
- HSA desorption capacity, previous study ([2]; value from the previous study): 15.3 mg/ml beads
- solubility in water [4]: insoluble
- release of bound HA, SPR results (human albumin (HA) [1]; SPR): 31%
- albumin release capacity on CB surface (human albumin (HA) [1]; SPR, CB surface, concentrations of about 0.5 μg/mL): 44.1%
- HSA desorption capacity (HSA): 19.44 mg/ml beads

SMILES: N[C@@H](Cc1c[nH]c2ccccc12)C(=O)O [Tryptophan (NH2 term), Tryptophan]
- SPR angle shift after HA binding (human albumin (HA) [1]): ~0.17 °
- SPR angle shift after HA binding (human albumin (HA) [1]; listed as tryptophan of —NH2 terminus): 0.170 °
- Release percentage (highest observed; %) NaSCN (2M) (human albumin (HA) [1]): 15.0%
- Release percentage (highest observed; %) SDS (35 mM) (human albumin (HA) [1]): 0%
- Release percentage (highest observed; %) pH 3.6 (human albumin (HA) [1]): 0%

SMILES: Nc1ccc2c(O)c(N=Nc3ccc(N=Nc4ccc(N=Nc5cc(S(=O)(=O)[O-])c6cccc(S(=O)(=O)[O-])c6c5)c5ccccc45)c4ccc(S(=O)(=O)[O-])cc34)c(S(=O)(=O)[O-])cc2c1.[Na+].[Na+].[Na+].[Na+] [Direct Blue 71]
- Kd (human albumin (HA) [3]; HA 0.1-2.0 mg/mL in PB, Langmuir fit, Kd=1/Ka): 1100 nM
- SPR angle shift after HA binding (human albumin (HA) [1]): ~0.19 °
- SPR angle shift after HA binding (human albumin (HA) [1]; listed as DB71): 0.19 °
- Release percentage (highest observed; %) NaSCN (2M) (human albumin (HA) [1]): 0%
- Release percentage (highest observed; %) SDS (35 mM) (human albumin (HA) [1]): 0%

SMILES: CCCCCCCC [Octane (C8; Alkane), Octane]
- SPR angle shift after HA binding (human albumin (HA) [1]): ~0.11 °
- SPR angle shift after HA binding (human albumin (HA) [1]; listed as Octane): 0.110 °
- Release percentage (highest observed; %) NaSCN (2M) (human albumin (HA) [1]): 51.4%
- Release percentage (highest observed; %) SDS (35 mM) (human albumin (HA) [1]): 29.5%

— patent US20260166211A1, “SYSTEM FOR REMOVING PROTEIN BOUND UREMIC TOXINS DURING HEMODIALYSIS” (University of Washington, priority 2022, published 2026)
